From patent publication US8748441B2, “Therapeutic uses of quinazolinedione derivatives” (SANOFI, priority 2009, dated 2014)

Columns and labels:
MG7 microglial cells = assay: In vitro model of microglial activation: interleukin-1β secretion by LPS-activated MG7 cells (ELISA); assay type: cell-based, mouse
Method: The compounds according to the invention have been evaluated in an in vitro model of microglial activation. After activation by lipopolysaccharide (LPS), the microglial cells secrete large amounts of interleukin-1, which amounts can be quantified by specific assaying in the cell supernatants.
Cultures of microglial cells of the MG7 line derived from the mouse cortex are incubated in the presence of variable concentrations of compounds according to the invention. After incubating at 37° C. for 1 hour, the cells are brought together with LPS, which induces the production of interleukin-1. After treating for 24 h, the amounts of interleukin-1β are measured in the culture supernatants by ELISA assay.

PDE8 = PDE8 enzymatic assay equivalent to that described for PDE7; assay type: biochemical

| IC50 (PDE8) | Structure (SMILES) | inhibition at 3 µM (MG7 microglial cells; Mus musculus, at 3 μM, MG7 microglial cells activated by LPS, 24 h, read-out: maximum inhibitory effect on secretion of interleukin-1β) | secretion of interleukin-1β by MG7 microglial cells activated by LPS (MG7 microglial cells; variable concentrations, 1 h preincubation, LPS 24 h) |
| --- | --- | --- | --- |
|  | O=CN1CCC(n2c(=O)n(Cc3ccc(-c4cccs4)cc3)c(=O)c3cc(OC(CF)CF)c(F)cc32)CC1 [No. 297, 4-{7-fluoro-6-[2-fluoro-1-(fluoromethyl)ethoxy]-2,4-dioxo-3-(4-(thiophen-2-yl)benzyl)-3,4-dihydroquinazolin-1(2H)-yl}piperidine-1-carbaldehyde] | 47% | significantly decreases, in a concentration-dependent fashion |
| 15 nM | N#Cc1cc(Cn2c(=O)c3cc(OC(CF)CF)ccc3n(C3CCN(C=O)CC3)c2=O)ccc1-c1ccccc1 [No. 294, 4-({6-[2-fluoro-1-(fluoromethyl)ethoxy]-1-(1-formylpiperidin-4-yl)-2,4-dioxo-1,4-dihydroquinazolin-3(2H)-yl}methyl)biphenyl-2-carbonitrile] |  |  |
| 140 nM | COc1ccc(Cn2c(=O)c3cc(OC(CF)CF)ccc3n(C3CCN(C=O)CC3)c2=O)cc1OC [No. 11, 4-[3-(3,4-dimethoxybenzyl)-6-[2-fluoro-1-(fluoromethyl)ethoxy]-2,4-dioxo-3,4-dihydroquinazolin-1(2H)-yl]piperidine-1-carbaldehyde] |  |  |
